According to article PMC9924185, “A validated LC–MS/MS method for clinical pharmacokinetics and presumptive phase II metabolic pathways following oral administration of Andrographis paniculata extract” (Scientific Reports, 2023):
Like-named read-outs stand apart in the source and are kept apart here. Each block holds one compound with its values, some of them ahead of it.

Columns and labels:
[1] = Clinical pharmacokinetics in plasma after single oral administration of A. paniculata extract; format: in vivo, human; conditions: for Cmax / AUC(0-t) / Vd/F / Tmax / half-life: human, parent compound in plasma, single oral dose of extract (60 mg andrographolide); for Cmax: healthy subjects n = 4; for Cmax / AUC(0-t) / Vd/F: mean ± SD; for AUC(0-t) / Vd/F / Tmax / half-life: n = 4; for Tmax / half-life: median
Description: (§1) An aliquot of 50 µL of plasma or urine was placed in a 1.5 mL of polypropylene centrifuge micro-tube. Protein was removed from the sample by adding 200 µL of methanol (containing 50.00 ng/mL of IS). The mixture was vortexed for 10 min and was then centrifuged at 12,000 rpm, 4 °C for 10 min. The supernatant was filtered through a […] PVDF membrane (Chrom Tech) and transferred into a glass insert in a vial before LC‑MS/MS analysis.
(§2) The clinical pharmacokinetic study was designed as an open-labeled, with a single oral dosing, and conducted under a fasting condition. Four healthy subjects were recruited according to the following inclusion criteria: 18—55 years old with a body mass index (BMI) of 18–30 kg/m^2. Study participants were identified as healthy based on laboratory testing and physical examinations. The participants received 3 capsules containing A. paniculata extract (calculated as 60 mg of andrographolide/dose) before breakfast with 240 mL of drinking water. Blood samples, in EDTA tubes, were taken after oral administration at 0, 10, 20, 30, 45 min, and 1, 1.5, 2, 4, 6, 8, 10, 12, 24 h post dose. All blood samples were then centrifuged at 4000 ± 100 rpm, 4 °C for 5 min. Plasma was pipetted and stored in cryotubes at − 80 °C until further analysis. Urine samples were collected during 0–4, 4–8, 8–12, 12–24, 24–32, 32–40 and 40–48 h after dosing and were then kept at − 80 °C before sample extraction.
Pharmacokinetic parameters were determined by non-compartmental analysis using PK solutions software, version 2.0 (Summit Research Services). The maximum concentration of four targeted compounds (Cmax) and the time to reach maximum concentration (Tmax) were taken directly from the individual plasma concentration versus time profiles. The area under the curve from time zero to the last sampling time (AUC0-t) was estimated using the linear trapezoidal rule. The apparent volume of distribution (Vd/F) and the elimination half-life (t1/2) were determined using non-compartmental analysis.
(§3) Finally, the hydrolysis of glucuronide metabolites in the pharmacokinetic study was performed according to the following process: 50 µL of plasma or urine sample was incubated for 30 min with 50 µL of 1000 U/mL β-glucuronidase in phosphate buffer pH 6.8 (composed of 0.1 M sodium phosphate monobasic and 0.1 M sodium phosphate dibasic) at 37 °C. For the hydrolysis of sulfatase, 50 µL of 100 units/mL of sulfatase in an acetate buffer at pH 5.0 (composed of 0.1 M acetic acid and 0.1 M sodium acetate) was added into 50 µL of sample; the mixture was then incubated at 37 °C for 2 h. The reaction was stopped in all hydrolysis samples with 150 µL of cold methanol, and then protein precipitation was performed prior to LC–MS/MS analysis. However, due to unavailable standard of the conjugated forms (AP-glucuronide and […]). The quantitative analysis of conjugated metabolites was determined after the hydrolysis reaction by enzymatic digestion, and the free form was analyzed without hydrolysis. The conjugated standards of AP-glucuronide or AP-sulfate should be synthesized for determining the exact amount of the glucuronide or sulfate.

[2] = Stability in urine under different storage conditions; format: physicochemical, human
Description: (§4) The stability of plasma and urine samples were evaluated at three different QC concentration levels (LQC, MQC and HQC, n = 3 for each level); the conditions were freeze–thaw stability, long-term stability, short-term stability, and post preparative stability in an autosampler. The evaluation of stability under freeze–thaw condition was carried out over five cycles of − 80 °C for at least 12 h of each cycle. Long-term stability was analyzed after storing the samples at − 80 °C. Short-term stability of each analyte, for up to 8 h during processing on the bench at room temperature, was also evaluated. For evaluation of post-preparative stability, the extracted samples were stored at ambient temperature (4 °C) in an autosampler for 24 h. The analyte was considered as a stable sample when the average percentage of accuracy of the QC sample was in the range of 85–115% and the %CV was not over 15%.

[3] = plasma
Description: as §4

[4] = Cumulative urine excretion after single oral administration of A. paniculata extract; format: in vivo, human
Description: as §1, §2, §3

[5] = Freeze–thaw stability 5 cycles, 2.50 ng/mL (LQC)
[6] = Freeze–thaw stability 5 cycles, 500.00 ng/mL (MQC)
[7] = Freeze–thaw stability 5 cycles, 900.00 ng/mL (HQC)
[8] = Long term stability 3 months at − 80 °C, 2.50 ng/mL (LQC)
[9] = Long term stability 3 months at − 80 °C, 500.00 ng/mL (MQC)
[10] = Long term stability 3 months at − 80 °C, 900.00 ng/mL (HQC)
[11] = Post preparative stability 24 h at autosampler, 2.50 ng/mL (LQC)
[12] = Post preparative stability 24 h at autosampler, 500.00 ng/mL (MQC)
[13] = Post preparative stability 24 h at autosampler, 900.00 ng/mL (HQC)
[14] = Short term stability 8 h at room temperature, 2.50 ng/mL (LQC)
[15] = Short term stability 8 h at room temperature, 500.00 ng/mL (MQC)
[16] = Short term stability 8 h at room temperature, 900.00 ng/mL (HQC)

- Cmax [1]: 22.4 ± 5.87 ng/mL
- AUC(0-t) [1]: 44.1 ± 7.48 ng·h/mL
- Vd/F [1]: 0.65 ± 0.13 L/kg
- Tmax [1]: 1.5 h
- half-life [1]: 0.22 h
- Amount detected in plasma ([1]; parent compound, single oral dose of extract): only very small amounts
- Conjugated metabolites in plasma ([1]; single oral dose of extract): negligible
- %Accuracy [2, 5]: 93.80%
- Measured concentration [2, 5]: 2.35 ± 0.08 ng/mL
- %Accuracy [2, 6]: 92.94%
- Measured concentration [2, 6]: 464.68 ± 10.80 ng/mL
- %Accuracy [2, 7]: 101.12%
- Measured concentration [2, 7]: 910.07 ± 23.86 ng/mL
- %Accuracy [2, 8]: 93.48%
- Measured concentration [2, 8]: 2.34 ± 0.16 ng/mL
- %Accuracy [2, 9]: 89.13%
- Measured concentration [2, 9]: 445.65 ± 10.92 ng/mL
- %Accuracy [2, 10]: 94.77%
- Measured concentration [2, 10]: 852.94 ± 7.53 ng/mL
- %Accuracy [2, 11]: 96.03%
- Measured concentration [2, 11]: 2.40 ± 0.15 ng/mL
- %Accuracy [2, 12]: 89.94%
- Measured concentration [2, 12]: 449.68 ± 2.36 ng/mL
- %Accuracy [2, 13]: 101.81%
- Measured concentration [2, 13]: 916.25 ± 29.10 ng/mL
- %Accuracy [2, 14]: 97.15%
- Measured concentration [2, 14]: 2.43 ± 0.07 ng/mL
- Measured concentration [2, 15]: 461.15 ± 18.24 ng/mL
- %Accuracy [2, 16]: 102.82%
- Measured concentration [2, 16]: 925.37 ± 32.74 ng/mL
- %Accuracy [3, 5]: 99.77%
- Measured concentration [3, 5]: 2.49 ± 0.14 ng/mL
- %Accuracy [3, 6]: 94.01%
- Measured concentration [3, 6]: 470.07 ± 13.89 ng/mL
- %Accuracy [3, 7]: 100.73%
- Measured concentration [3, 7]: 906.60 ± 9.37 ng/mL
- %Accuracy [3, 8]: 93.19%
- Measured concentration [3, 8]: 2.33 ± 0.12 ng/mL
- %Accuracy [3, 9]: 94.65%
- Measured concentration [3, 9]: 473.25 ± 26.27 ng/mL
- %Accuracy [3, 10]: 98.12%
- Measured concentration [3, 10]: 883.06 ± 16.19 ng/mL
- %Accuracy [3, 11]: 102.61%
- Measured concentration [3, 11]: 2.57 ± 0.12 ng/mL
- %Accuracy [3, 12]: 97.12%
- Measured concentration [3, 12]: 485.59 ± 17.11 ng/mL
- %Accuracy [3, 13]: 98.43%
- Measured concentration [3, 13]: 885.84 ± 17.63 ng/mL
- %Accuracy [3, 14]: 98.11%
- Measured concentration [3, 14]: 2.45 ± 0.19 ng/mL
- %Accuracy [3, 15]: 94.85%
- Measured concentration [3, 15]: 474.29 ± 22.98 ng/mL
- %Accuracy [3, 16]: 98.96%
- Measured concentration [3, 16]: 890.60 ± 51.25 ng/mL
- Conjugated metabolites in the urine [4]: negligible
- Route of excretion [4]: primarily excreted renally
SMILES: C=C1CC[C@@H]2[C@](C)(CO[C@@H]3O[C@H](CO)[C@@H](O)[C@H](O)[C@H]3O)CCC[C@@]2(C)[C@@H]1CCC1=CCOC1=O [AP4, neoandrographolide]

- Cmax [1]: 83.8 ± 22.2 ng/mL
- AUC(0-t) [1]: 309 ± 59 ng·h/mL
- Vd/F [1]: 0.73 ± 0.1 L/kg
- Tmax [1]: 1.5 h
- half-life [1]: 1.38 h
- AUC of both conjugated metabolites compared to the respective parent compounds ([1]; plasma, single oral dose of extract): greater
- %Accuracy [2, 5]: 93.92%
- Measured concentration [2, 5]: 2.35 ± 0.10 ng/mL
- %Accuracy [2, 6]: 91.91%
- Measured concentration [2, 6]: 459.54 ± 15.54 ng/mL
- %Accuracy [2, 7]: 100.19%
- Measured concentration [2, 7]: 901.72 ± 35.81 ng/mL
- %Accuracy [2, 8]: 94.28%
- Measured concentration [2, 8]: 2.36 ± 0.06 ng/mL
- %Accuracy [2, 9]: 90.36%
- Measured concentration [2, 9]: 451.82 ± 15.00 ng/mL
- %Accuracy [2, 10]: 98.18%
- Measured concentration [2, 10]: 883.61 ± 32.83 ng/mL
- %Accuracy [2, 11]: 93.61%
- Measured concentration [2, 11]: 2.34 ± 0.11 ng/mL
- %Accuracy [2, 12]: 90.33%
- Measured concentration [2, 12]: 451.66 ± 9.81 ng/mL
- %Accuracy [2, 13]: 100.28%
- Measured concentration [2, 13]: 902.47 ± 52.60 ng/mL
- %Accuracy [2, 14]: 94.35%
- Measured concentration [2, 14]: 2.36 ± 0.07 ng/mL
- %Accuracy [2, 15]: 90.63%
- Measured concentration [2, 15]: 453.16 ± 19.26 ng/mL
- %Accuracy [2, 16]: 101.88%
- Measured concentration [2, 16]: 916.89 ± 26.49 ng/mL
- %Accuracy [3, 5]: 102.35%
- Measured concentration [3, 5]: 2.56 ± 0.21 ng/mL
- %Accuracy [3, 6]: 93.25%
- Measured concentration [3, 6]: 466.24 ± 38.67 ng/mL
- %Accuracy [3, 7]: 98.75%
- Measured concentration [3, 7]: 888.74 ± 16.64 ng/mL
- %Accuracy [3, 8]: 87.13%
- Measured concentration [3, 8]: 2.18 ± 0.05 ng/mL
- %Accuracy [3, 9]: 94.32%
- Measured concentration [3, 9]: 471.59 ± 4.35 ng/mL
- %Accuracy [3, 10]: 98.11%
- Measured concentration [3, 10]: 883.01 ± 16.08 ng/mL
- %Accuracy [3, 11]: 97.41%
- Measured concentration [3, 11]: 2.44 ± 0.04 ng/mL
- %Accuracy [3, 12]: 94.34%
- Measured concentration [3, 12]: 471.70 ± 15.57 ng/mL
- %Accuracy [3, 13]: 100.12%
- Measured concentration [3, 13]: 901.09 ± 11.50 ng/mL
- %Accuracy [3, 14]: 97.61%
- Measured concentration [3, 14]: 2.44 ± 0.04 ng/mL
- %Accuracy [3, 15]: 94.40%
- Measured concentration [3, 15]: 472.00 ± 19.37 ng/mL
- %Accuracy [3, 16]: 98.65%
- Measured concentration [3, 16]: 887.83 ± 21.04 ng/mL
- Route of excretion [4]: primarily excreted renally
SMILES: C=C1CC[C@@H]2[C@](C)(CO)[C@H](O)CC[C@@]2(C)[C@@H]1/C=C/C1=CCOC1=O [AP3, 14-deoxy-11, 12-didehydroandrographolide]
